± gives the expanded uncertainty stated by the source.
Conditions: Liquid

CCCCCCCCCC(=O)OCC [ethyl decanoate]
viscosity (293.15 K, 101.3 kPa, Falling or rolling sphere viscometry): 2.34 ± 0.09 mPa·s | viscosity (293.15 K, 101.3 kPa, Quartz crystal resonator): 2.33 ± 0.05 mPa·s | viscosity (293.15 K, 10000 kPa, Quartz crystal resonator): 2.59 ± 0.05 mPa·s | viscosity (293.15 K, 20000 kPa, Falling or rolling sphere viscometry): 2.94 ± 0.11 mPa·s | viscosity (293.15 K, 20000 kPa, Quartz crystal resonator): 2.91 ± 0.06 mPa·s | viscosity (293.15 K, 30000 kPa, Quartz crystal resonator): 3.22 ± 0.07 mPa·s | viscosity (293.15 K, 40000 kPa, Falling or rolling sphere viscometry): 3.62 ± 0.13 mPa·s | viscosity (293.15 K, 40000 kPa, Quartz crystal resonator): 3.57 ± 0.07 mPa·s | viscosity (293.15 K, 50000 kPa, Quartz crystal resonator): 3.95 ± 0.08 mPa·s | viscosity (293.15 K, 60000 kPa, Falling or rolling sphere viscometry): 4.4 ± 0.16 mPa·s | viscosity (293.15 K, 60000 kPa, Quartz crystal resonator): 4.35 ± 0.09 mPa·s | viscosity (293.15 K, 70000 kPa, Quartz crystal resonator): 4.8 ± 0.1 mPa·s | viscosity (293.15 K, 80000 kPa, Falling or rolling sphere viscometry): 5.29 ± 0.19 mPa·s | viscosity (293.15 K, 80000 kPa, Quartz crystal resonator): 5.23 ± 0.11 mPa·s | viscosity (293.15 K, 90000 kPa, Quartz crystal resonator): 5.74 ± 0.12 mPa·s | viscosity (293.15 K, 100000 kPa, Falling or rolling sphere viscometry): 6.3 ± 0.23 mPa·s | viscosity (293.15 K, 100000 kPa, Quartz crystal resonator): 6.25 ± 0.13 mPa·s | viscosity (293.15 K, 120000 kPa, Falling or rolling sphere viscometry): 7.45 ± 0.27 mPa·s | viscosity (293.15 K, 120000 kPa, Quartz crystal resonator): 7.46 ± 0.3 mPa·s | viscosity (293.15 K, 140000 kPa, Falling or rolling sphere viscometry): 8.78 ± 0.32 mPa·s | viscosity (293.15 K, 140000 kPa, Quartz crystal resonator): 8.83 ± 0.36 mPa·s | viscosity (293.15 K, 160000 kPa, Falling or rolling sphere viscometry): 10.3 ± 0.37 mPa·s | viscosity (293.15 K, 160000 kPa, Quartz crystal resonator): 10.7 ± 0.4 mPa·s | viscosity (293.15 K, 180000 kPa, Falling or rolling sphere viscometry): 12.06 ± 0.44 mPa·s | viscosity (293.15 K, 180000 kPa, Quartz crystal resonator): 12.4 ± 0.5 mPa·s | viscosity (293.15 K, 200000 kPa, Falling or rolling sphere viscometry): 14.1 ± 0.51 mPa·s | viscosity (293.15 K, 200000 kPa, Quartz crystal resonator): 14.5 ± 0.6 mPa·s | viscosity (313.15 K, 101.3 kPa, Falling or rolling sphere viscometry): 1.59 ± 0.06 mPa·s | viscosity (313.15 K, 101.3 kPa, Quartz crystal resonator): 1.59 ± 0.03 mPa·s | viscosity (313.15 K, 10000 kPa, Quartz crystal resonator): 1.77 ± 0.04 mPa·s | viscosity (313.15 K, 20000 kPa, Falling or rolling sphere viscometry): 1.96 ± 0.07 mPa·s | viscosity (313.15 K, 20000 kPa, Quartz crystal resonator): 1.97 ± 0.04 mPa·s | viscosity (313.15 K, 30000 kPa, Quartz crystal resonator): 2.18 ± 0.05 mPa·s | viscosity (313.15 K, 40000 kPa, Falling or rolling sphere viscometry): 2.38 ± 0.09 mPa·s | viscosity (313.15 K, 40000 kPa, Quartz crystal resonator): 2.39 ± 0.05 mPa·s | viscosity (313.15 K, 50000 kPa, Quartz crystal resonator): 2.62 ± 0.06 mPa·s | viscosity (313.15 K, 60000 kPa, Falling or rolling sphere viscometry): 2.85 ± 0.1 mPa·s | viscosity (313.15 K, 60000 kPa, Quartz crystal resonator): 2.86 ± 0.06 mPa·s | viscosity (313.15 K, 70000 kPa, Quartz crystal resonator): 3.14 ± 0.07 mPa·s | viscosity (313.15 K, 80000 kPa, Falling or rolling sphere viscometry): 3.37 ± 0.12 mPa·s | viscosity (313.15 K, 80000 kPa, Quartz crystal resonator): 3.44 ± 0.07 mPa·s | viscosity (313.15 K, 90000 kPa, Quartz crystal resonator): 3.72 ± 0.08 mPa·s | viscosity (313.15 K, 100000 kPa, Falling or rolling sphere viscometry): 3.96 ± 0.14 mPa·s | viscosity (313.15 K, 100000 kPa, Quartz crystal resonator): 4.04 ± 0.09 mPa·s | viscosity (313.15 K, 120000 kPa, Falling or rolling sphere viscometry): 4.62 ± 0.17 mPa·s | viscosity (313.15 K, 120000 kPa, Quartz crystal resonator): 4.69 ± 0.19 mPa·s | viscosity (313.15 K, 140000 kPa, Falling or rolling sphere viscometry): 5.35 ± 0.19 mPa·s | viscosity (313.15 K, 140000 kPa, Quartz crystal resonator): 5.52 ± 0.22 mPa·s | viscosity (313.15 K, 160000 kPa, Falling or rolling sphere viscometry): 6.18 ± 0.22 mPa·s | viscosity (313.15 K, 160000 kPa, Quartz crystal resonator): 6.27 ± 0.26 mPa·s | viscosity (313.15 K, 180000 kPa, Falling or rolling sphere viscometry): 7.11 ± 0.26 mPa·s | viscosity (313.15 K, 180000 kPa, Quartz crystal resonator): 7.31 ± 0.3 mPa·s | viscosity (313.15 K, 200000 kPa, Falling or rolling sphere viscometry): 8.16 ± 0.3 mPa·s | viscosity (313.15 K, 200000 kPa, Quartz crystal resonator): 8.36 ± 0.34 mPa·s | viscosity (333.15 K, 101.3 kPa, Falling or rolling sphere viscometry): 1.16 ± 0.04 mPa·s | viscosity (333.15 K, 101.3 kPa, Quartz crystal resonator): 1.16 ± 0.02 mPa·s | viscosity (333.15 K, 10000 kPa, Quartz crystal resonator): 1.28 ± 0.03 mPa·s | viscosity (333.15 K, 20000 kPa, Falling or rolling sphere viscometry): 1.44 ± 0.05 mPa·s | viscosity (333.15 K, 20000 kPa, Quartz crystal resonator): 1.43 ± 0.03 mPa·s | viscosity (333.15 K, 30000 kPa, Quartz crystal resonator): 1.59 ± 0.03 mPa·s | viscosity (333.15 K, 40000 kPa, Falling or rolling sphere viscometry): 1.74 ± 0.06 mPa·s | viscosity (333.15 K, 40000 kPa, Quartz crystal resonator): 1.74 ± 0.04 mPa·s | viscosity (333.15 K, 50000 kPa, Quartz crystal resonator): 1.87 ± 0.04 mPa·s | viscosity (333.15 K, 60000 kPa, Falling or rolling sphere viscometry): 2.06 ± 0.07 mPa·s | viscosity (333.15 K, 60000 kPa, Quartz crystal resonator): 2.07 ± 0.04 mPa·s | viscosity (333.15 K, 70000 kPa, Quartz crystal resonator): 2.2 ± 0.05 mPa·s | viscosity (333.15 K, 80000 kPa, Falling or rolling sphere viscometry): 2.42 ± 0.09 mPa·s | viscosity (333.15 K, 80000 kPa, Quartz crystal resonator): 2.37 ± 0.05 mPa·s | viscosity (333.15 K, 90000 kPa, Quartz crystal resonator): 2.59 ± 0.05 mPa·s | viscosity (333.15 K, 100000 kPa, Falling or rolling sphere viscometry): 2.81 ± 0.1 mPa·s | viscosity (333.15 K, 100000 kPa, Quartz crystal resonator): 2.82 ± 0.06 mPa·s | viscosity (333.15 K, 120000 kPa, Falling or rolling sphere viscometry): 3.23 ± 0.12 mPa·s | viscosity (333.15 K, 120000 kPa, Quartz crystal resonator): 3.27 ± 0.13 mPa·s | viscosity (333.15 K, 140000 kPa, Falling or rolling sphere viscometry): 3.7 ± 0.13 mPa·s | viscosity (333.15 K, 140000 kPa, Quartz crystal resonator): 3.72 ± 0.15 mPa·s | viscosity (333.15 K, 160000 kPa, Falling or rolling sphere viscometry): 4.22 ± 0.15 mPa·s | viscosity (333.15 K, 160000 kPa, Quartz crystal resonator): 4.25 ± 0.17 mPa·s | viscosity (333.15 K, 180000 kPa, Falling or rolling sphere viscometry): 4.78 ± 0.17 mPa·s | viscosity (333.15 K, 180000 kPa, Quartz crystal resonator): 4.7 ± 0.19 mPa·s | viscosity (333.15 K, 200000 kPa, Falling or rolling sphere viscometry): 5.41 ± 0.2 mPa·s | viscosity (333.15 K, 200000 kPa, Quartz crystal resonator): 5.36 ± 0.22 mPa·s | viscosity (353.15 K, 101.3 kPa, Falling or rolling sphere viscometry): 0.888 ± 0.032 mPa·s | viscosity (353.15 K, 101.3 kPa, Quartz crystal resonator): 0.893 ± 0.019 mPa·s | viscosity (353.15 K, 10000 kPa, Quartz crystal resonator): 1 ± 0.02 mPa·s | viscosity (353.15 K, 20000 kPa, Falling or rolling sphere viscometry): 1.1 ± 0.04 mPa·s | viscosity (353.15 K, 20000 kPa, Quartz crystal resonator): 1.1 ± 0.02 mPa·s | viscosity (353.15 K, 30000 kPa, Quartz crystal resonator): 1.21 ± 0.03 mPa·s | viscosity (353.15 K, 40000 kPa, Falling or rolling sphere viscometry): 1.32 ± 0.05 mPa·s | viscosity (353.15 K, 40000 kPa, Quartz crystal resonator): 1.32 ± 0.03 mPa·s | viscosity (353.15 K, 50000 kPa, Quartz crystal resonator): 1.45 ± 0.03 mPa·s | viscosity (353.15 K, 60000 kPa, Falling or rolling sphere viscometry): 1.56 ± 0.06 mPa·s | viscosity (353.15 K, 60000 kPa, Quartz crystal resonator): 1.58 ± 0.03 mPa·s | viscosity (353.15 K, 70000 kPa, Quartz crystal resonator): 1.72 ± 0.04 mPa·s | viscosity (353.15 K, 80000 kPa, Falling or rolling sphere viscometry): 1.82 ± 0.07 mPa·s | viscosity (353.15 K, 80000 kPa, Quartz crystal resonator): 1.84 ± 0.04 mPa·s | viscosity (353.15 K, 90000 kPa, Quartz crystal resonator): 1.98 ± 0.04 mPa·s | viscosity (353.15 K, 100000 kPa, Falling or rolling sphere viscometry): 2.1 ± 0.08 mPa·s | viscosity (353.15 K, 100000 kPa, Quartz crystal resonator): 2.13 ± 0.04 mPa·s | viscosity (353.15 K, 120000 kPa, Falling or rolling sphere viscometry): 2.4 ± 0.09 mPa·s | viscosity (353.15 K, 120000 kPa, Quartz crystal resonator): 2.42 ± 0.1 mPa·s | viscosity (353.15 K, 140000 kPa, Falling or rolling sphere viscometry): 2.73 ± 0.1 mPa·s | viscosity (353.15 K, 140000 kPa, Quartz crystal resonator): 2.74 ± 0.11 mPa·s | viscosity (353.15 K, 160000 kPa, Falling or rolling sphere viscometry): 3.08 ± 0.11 mPa·s | viscosity (353.15 K, 160000 kPa, Quartz crystal resonator): 3.14 ± 0.13 mPa·s | viscosity (353.15 K, 180000 kPa, Falling or rolling sphere viscometry): 3.46 ± 0.13 mPa·s | viscosity (353.15 K, 180000 kPa, Quartz crystal resonator): 3.53 ± 0.14 mPa·s | viscosity (353.15 K, 200000 kPa, Falling or rolling sphere viscometry): 3.88 ± 0.14 mPa·s | viscosity (353.15 K, 200000 kPa, Quartz crystal resonator): 3.98 ± 0.16 mPa·s
